Assays:
[1] = molecular target: T1, Rat recombinant TRPV2 (Rattus norvegicus, UniProt Q9WUD2); test: cell-based; type: cell-based
T1 construct: expressed in transfected cells; host or cells: HEK293 (plasmid a gift from HB Bradshaw, Indiana University)
T1 sequence (Q9WUD2 1-761): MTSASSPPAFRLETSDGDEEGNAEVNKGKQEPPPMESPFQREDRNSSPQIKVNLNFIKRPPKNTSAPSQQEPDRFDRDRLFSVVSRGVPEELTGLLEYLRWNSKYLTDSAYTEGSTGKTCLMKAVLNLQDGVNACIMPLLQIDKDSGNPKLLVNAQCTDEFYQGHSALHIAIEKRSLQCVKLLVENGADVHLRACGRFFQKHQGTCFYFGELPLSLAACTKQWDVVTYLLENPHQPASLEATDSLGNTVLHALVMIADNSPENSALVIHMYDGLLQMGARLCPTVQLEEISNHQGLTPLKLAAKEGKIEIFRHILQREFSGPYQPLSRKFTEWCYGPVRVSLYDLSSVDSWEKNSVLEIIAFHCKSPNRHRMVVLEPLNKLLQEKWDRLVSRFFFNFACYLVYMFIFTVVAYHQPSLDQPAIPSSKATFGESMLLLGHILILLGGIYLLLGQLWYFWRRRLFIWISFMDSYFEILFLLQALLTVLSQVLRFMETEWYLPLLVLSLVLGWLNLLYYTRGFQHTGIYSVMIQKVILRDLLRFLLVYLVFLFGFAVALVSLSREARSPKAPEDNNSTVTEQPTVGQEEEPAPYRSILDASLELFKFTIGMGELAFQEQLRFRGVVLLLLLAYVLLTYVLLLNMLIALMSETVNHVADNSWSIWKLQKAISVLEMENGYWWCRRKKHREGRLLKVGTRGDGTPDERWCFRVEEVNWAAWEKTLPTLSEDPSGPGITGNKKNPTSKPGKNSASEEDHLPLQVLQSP

[2] = molecular target: T2, Rat recombinant TRPV4 (Rattus norvegicus, UniProt Q9ERZ8); test: cell-based; type: cell-based
T2 construct: expressed in transfected cells; host or cells: HEK293 (TRPV4-HEK-293, gift from HB Bradshaw, Indiana University)
T2 sequence (Q9ERZ8 whole entry): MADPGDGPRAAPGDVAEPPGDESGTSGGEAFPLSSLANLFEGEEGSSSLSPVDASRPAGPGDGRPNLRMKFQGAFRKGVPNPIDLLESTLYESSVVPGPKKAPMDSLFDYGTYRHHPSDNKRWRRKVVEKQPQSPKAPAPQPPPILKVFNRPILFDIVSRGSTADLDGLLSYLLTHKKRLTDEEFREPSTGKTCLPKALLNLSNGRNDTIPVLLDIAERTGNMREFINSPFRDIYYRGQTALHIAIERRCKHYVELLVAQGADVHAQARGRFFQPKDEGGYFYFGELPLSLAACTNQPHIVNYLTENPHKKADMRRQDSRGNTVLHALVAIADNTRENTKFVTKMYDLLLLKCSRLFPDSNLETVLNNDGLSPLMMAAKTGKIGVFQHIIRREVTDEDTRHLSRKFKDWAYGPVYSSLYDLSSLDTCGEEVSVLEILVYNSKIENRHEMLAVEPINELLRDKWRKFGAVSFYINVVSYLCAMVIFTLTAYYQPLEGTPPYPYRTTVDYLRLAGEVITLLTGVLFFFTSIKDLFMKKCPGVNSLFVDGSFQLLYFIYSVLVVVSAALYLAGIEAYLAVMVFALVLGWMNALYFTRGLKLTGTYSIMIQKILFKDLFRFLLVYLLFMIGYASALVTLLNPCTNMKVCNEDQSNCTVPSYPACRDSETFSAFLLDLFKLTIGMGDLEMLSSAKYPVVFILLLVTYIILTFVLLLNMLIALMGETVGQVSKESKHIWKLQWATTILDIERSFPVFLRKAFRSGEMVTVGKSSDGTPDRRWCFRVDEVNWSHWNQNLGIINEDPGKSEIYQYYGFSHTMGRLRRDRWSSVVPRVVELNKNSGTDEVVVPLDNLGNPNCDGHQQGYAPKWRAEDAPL

[3] = molecular target: T3, Rat recombinant TRPV3 (Rattus norvegicus, UniProt Q4QYD9); test: cell-based; type: cell-based
T3 construct: expressed in transfected cells; host or cells: HEK293 (TRPV3-HEK-293, gift from HB Bradshaw, Indiana University)
T3 sequence (Q4QYD9 1-791): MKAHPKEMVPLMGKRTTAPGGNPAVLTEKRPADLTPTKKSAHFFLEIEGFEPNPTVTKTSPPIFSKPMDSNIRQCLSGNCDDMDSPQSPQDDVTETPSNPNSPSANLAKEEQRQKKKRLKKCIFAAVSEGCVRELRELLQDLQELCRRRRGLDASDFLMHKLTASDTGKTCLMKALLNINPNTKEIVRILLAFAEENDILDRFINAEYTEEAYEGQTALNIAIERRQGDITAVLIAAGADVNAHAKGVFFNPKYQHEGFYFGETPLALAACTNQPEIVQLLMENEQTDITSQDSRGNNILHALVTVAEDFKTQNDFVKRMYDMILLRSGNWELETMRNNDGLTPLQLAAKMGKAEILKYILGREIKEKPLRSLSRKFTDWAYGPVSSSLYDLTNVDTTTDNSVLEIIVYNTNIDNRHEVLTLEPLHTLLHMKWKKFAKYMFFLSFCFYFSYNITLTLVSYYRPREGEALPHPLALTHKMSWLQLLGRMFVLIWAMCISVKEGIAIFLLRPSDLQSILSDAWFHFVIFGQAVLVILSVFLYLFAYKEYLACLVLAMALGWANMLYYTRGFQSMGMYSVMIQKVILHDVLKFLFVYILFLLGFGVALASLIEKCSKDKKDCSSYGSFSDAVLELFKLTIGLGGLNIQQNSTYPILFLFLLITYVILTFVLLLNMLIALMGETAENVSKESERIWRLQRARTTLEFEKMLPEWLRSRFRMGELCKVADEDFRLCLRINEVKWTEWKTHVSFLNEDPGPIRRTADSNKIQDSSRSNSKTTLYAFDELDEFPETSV

[4] = system: AEA cellular uptake in U937 cells; test: cells; type: cell-based, human; conditions: 10 µM

lysophosphatidylcholine [LPC]
TRPV2 Efficacy (% ionomycin 4μM) [1]: 91.7±0.5%
EC50 ([1]; read-out: TRPV2 Potency EC50): 3.4 ± 0.02 µM

CCCCCCCCCC(=O)O[C@@H]1[C@@H](C)[C@@]2(O)[C@@H](C=C(CO)C[C@@]3(O)C(=O)C(C)=C[C@@H]23)[C@@H]2C(C)(C)[C@]12OC(=O)CCCCCCCCC [4α-PDD, 4α-phorbol 12,13-didecanoate]
TRPV4 Efficacy (% ionomycin 4μM) [2]: 51.9±1.7%
EC50 ([2]; read-out: TRPV4 Potency EC50): 0.46 ± 0.07 µM

Cc1ccc(C(C)C)c(O)c1 [thymol]
TRPV3 Efficacy (% ionomycin 4μM) [3]: 34.7±0.2%
EC50 ([3]; read-out: TRPV3 Potency EC50): 84.1 ± 1.6 µM

CCCCCCCC/C=C\CCCCCCCC(=O)N[C@@H](CO)Cc1ccc(O)cc1 [OMDM-2]
AEA cellular uptake inhibition, positive controls [4]: 59.7±6.6%

CCCCC/C=C\C/C=C\C/C=C\C/C=C\CCCC(=O)NCc1ccoc1 [UCM707]
AEA cellular uptake inhibition, positive controls [4]: 71.5±8.0%
